Results taken from patent publication US7078411B2, “Phospholipid transfer protein (PLTP) and cholestoral metabolism” (priority 2001, dated 2006).
“Also recorded” adds a separate entry of the source.

Experiments:
[1] = test system: phospholipid transfer protein (PLTP) gene; assay: DNA microarray expression profiling of topotecan-treated HepG2 cells; type: cell-based, human
Procedure: (§1) FIG. 1 is a DNA microarray presenting expression profiling of topotecan induced HepG2 cells. HepG2 cells were treated with 500 nM of topotecan in time course study for the indicated time points in the figure. RNAs were isolated, labeled and hybridized to the array. Scan image were analyzed using the Pathway and the Cluster softwares. The results of cluster analysis are shown in TreeView. Transition of color to red indicates the upregulation, and to green is the downregulation of gene expression.
FIG. 2 is a scanned image of the PLTP gene induced by topotecan. HepG2 cells were treated with topotecan in time-course and dose response studies. The microarrays were exposed to phosphorimage screen and the scanned images were analyzed with the Pathway software. Enlarged scanned images for the induction of PLTP gene with time and dose are shown.
as §1, with “3” for “1”, “various concentrations” for “500 nM”, “topotecan.” for “topotecan in time course study for the indicated time points in the figure.”, “images” for “image”, “TreeView. A representative set of genes with altered expression was plotted in the line graphs.” for “TreeView.”
We have used DNA microarray to monitor the expression profiles of cells in response to anticancer drug treatments, and also comparing these profiles to those obtained from cancer cells that have been selected for resistance to the corresponding agents. […]
The HepG2 cells were either transiently treated with 500 nM of topotecan for various times (1–24 hrs), or with various doses of topotecan (1–1000 nM) for 24 hrs. […] The scanned images were processed and analyzed on the Pathways™ software. Tab delimited files generated from Pathways™ were imported into Microsoft Excel® for sorting by fold changes and intensity levels (radioactivity, cpm).

[2] = test system: PLTP expression; assay: Northern blot analysis of PLTP expression in HepG2 cells; type: cell-based, human; conditions: for induction of PLTP expression: 500 nM, 24 hrs (FIG. 5)
Procedure: Dose response induction of PLTP was performed in HepG2 cells for 24 hrs. RNAs isolated were separated on agarose gel and then transferred to nitrocellulose filters for hybridization with a labeled full-length PLTP cDNA probe. […] Lane 1, control (untreated); 2, 1 nM; 3, 20 nM; 4, 100 nM; 5, 500 nM; and 6, 1,000 nM topotecan expression. […] This may be a result of the inhibition of transcription by topotecan at the higher dosage.
HepG2 cells were treated with the indicated drugs (500 nM) for 24 hrs. RNAs were then harvested and fractionated on agarose gel and then transferred to nitrocellulose filters for hybridization with a full length PLTP cDNA probe.
We first examined topotecan-induced PLTP expression in an independent dose response study by Northern blot analysis. […] This may be a result of the inhibition of transcription by topotecan at the higher dosage. […]

[3] = test system: PLTP promoter; assay: PLTP promoter-luciferase reporter, transient transfection in HepG2 cells (dual luciferase assay); type: cell-based, human; conditions: 24 hrs
Procedure: FIGS. 6A and 6B depict the transactivation of the PLTP promoter by topotecan. FIG. 6A is a schematic drawing of the PLTP gene promoter-luciferase reporter construct. The promoter was PCR amplified from a BAC clone containing the genomic sequence for the human PLTP gene. FIG. 6B graphically presents the results calibrated in terms of luciferase activity, of a study where HepG2 cells were transfected with the PLTP promoter-luciferase reporter and were then treated with various doses of topotecan for 24 hrs. Cell extracts were harvested for the dual luciferase assay (Promega, Wis.). The relative luciferase activity has been normalized with the internal control renella luciferase activity cotransfected with the promoter reporter construct, to monitor transfection efficiency.
We also determined whether induction of PLTP gene expression by topotecan is transcriptionally activated. Approximately 1.5 kb of the PLTP promoter sequence was obtained by the polymerase chain reaction (PCR) amplification of a human BAC clone (RP3-337018) containing the genomic sequence of PLTP. The PCR product consisting of the promoter region was sequenced verified and then subcloned into a luciferase reporter vector pGL2-Basic vector (Promega, Wis.) (FIG. 6A). […]

[4] = test system: PLTP promoter; type: cell-based, human; conditions: HepG2/PLTPpLuc; for specificity of induction of PLTP promoter activity: 24 hours (FIG. 14)
From the text: FIG. 11 is a schematic drawing of the promoter of the phospholipid transfer protein (PLTP) gene. A 1.6 kb fragment of the PLTP gene promoter derived from a BAC clone was PCR amplified and then subcloned into a modified pXP1 luciferase reporter plasmid vector. The modified vector contained the neomycin resistance marker gene.
HepG2 cells were permanently transfected with the construct shown in FIG. 11, and selected for resistance to G418, an aminoglycoside antibiotic. Clone 1, a G418 resistant cell line isolated from the selection, designated HepG2/PLTPpLuc, was utilized for testing the effect of topotecan on induction of PLTP promoter activity. The transfectant cell line, HepG2/PLTPpLuc, was treated with topotecan (500 nM) for approximately 24 hours. Cell extracts were obtained at the end of incubation and the luciferase assay was performed with them. The luciferase activity of the topotecan treated cells (+) was plotted relative to the control (−).
FIG. 13 illustrates the time course analysis of induction of PLTP promoter activity by topotecan in HepG2/PLTPpLuc cells. The HepG2/PLTPpLuc cells were treated with 500 nM of topotecan. Cell extracts were obtained at various time points following treatment with topotecan (0, 4, 8, 12, 16, and 24 hours) and assayed for luciferase activity, which was plotted as a function of time.
The HepG2/PLTPpLuc cells were treated with either topotecan, taxol, or melphalan for 24 hours. Cell extracts were then obtained for the luciferase assay.
The luciferase reporter plasmid was constructed by cloning the PLTP promoter derived from a BAC clone into the pXP2 luciferase reporter vector. A neomycin selectable marker gene driven by the CMV early promoter was further subcloned into the PLTP-luciferase reporter plasmid (FIG. 11).
Approximately 10 μg of the PLTP-luciferase reporter plasmid was transfected using lipofectamine into HepG2 cells for about 4 hrs. Cells were washed and then further cultured and selected in the presence of 1.6 mg/ml of G418 for neomycin resistance. Media were changed every 3 days with fresh G418 added at the above concentration. Approximately 14 days later, colonies that emerged from the selection were picked using cloning cylinders and the clones were transferred to 24-well cluster dishes for further culturing and selection.
At confluence, cells were next transferred to 12-well dishes and aliquots were also transferred to 24-well dishes for screening with topotecan for induction of the PLTP promoter activity. Luciferase assay was performed using a standard luciferase assay kit from Promega.

[5] = test system: cultured tumor cell lines; conditions: Table 1
From the text: To determine whether the induction of PLTP expression is topotecan specific, we evaluated the effects of camptothecin and some of its derivatives, and compared them against some protoberberines, which are a new class of organic cations that are dual poisons of topoisomerases I and II (3–5). Berberine is an isoquinoline plant alkaloid.

SMILES | induction of PLTP expression [2] | specificity of induction of PLTP promoter activity [4] | Cytotoxicity [5] | other results
CC[C@@]1(O)C(=O)OCc2c1cc1n(c2=O)Cc2cc3c(CN(C)C)c(O)ccc3nc2-1 [topotecan] | induced | specific for topotecan | – | induction of PLTP gene expression ([1]; 500 nM topotecan, after 24 hrs of exposure): approximately 20 fold; onset of PLTP expression after exposure ([1]; 500 nM topotecan, time course): 10 to 15 h; induction of PLTP expression, dose response ([1]; 1–1000 nM, 24 hrs): elevated in a dose dependent manner; PLTP expression at the highest dose ([2]; 1 μM, 24 hrs): reversed; induction of PLTP expression, dose response ([2]; 1–1000 nM, 24 hrs): dose dependent induction; also recorded: elevated with increasing doses; PLTP promoter activity at the highest dose ([3]; 1 μM): inhibition of the promoter activity; transactivation of PLTP promoter, dose response ([3]; various doses): transactivated by topotecan dose-dependently; induction of PLTP promoter activity ([4]; 500 nM, approximately 24 hours (FIG. 12)): approximately 20 fold
CC(=O)O[C@H]1C(=O)[C@@]2(C)[C@H]([C@H](OC(=O)c3ccccc3)[C@]3(O)C[C@H](OC(=O)[C@H](O)[C@@H](NC(=O)c4ccccc4)c4ccccc4)C(C)=C1C3(C)C)[C@]1(OC(C)=O)CO[C@@H]1C[C@@H]2O [taxol] | – | no significant stimulation | – | –
CC[C@@]1(O)C(=O)OCc2c1cc1n(c2=O)Cc2cc3ccccc3nc2-1 [Camptothecin (CPT), Camptothecin] | induced | – | Active | –
CCc1c2c(nc3ccc(OC(=O)N4CCC(N5CCCCC5)CC4)cc13)-c1cc3c(c(=O)n1C2)COC(=O)[C@]3(O)CC [Irinotecan (CPT-11), Irinotecan] | failed to activate PLTP expression | – | – | –
CCC1(O)C(=O)OCc2c1cc1n(c2=O)Cc2cc3c(N)c4c(cc3nc2-1)OCO4 [9-NH2-10,11-MD-CPT(S)] | induced | – | Active | –
CC[C@@]1(O)C(=O)OCc2c1cc1n(c2=O)Cc2cc3c(N)cccc3nc2-1 [9-NH2-CPT(S)] | induced | – | Active | –
CC[C@]1(O)C[C@@H]2CN(CCc3c([nH]c4ccccc34)[C@@](C(=O)OC)(c3cc4c(cc3OC)N(C)[C@H]3[C@@](O)(C(=O)OC)[C@H](OC(C)=O)[C@]5(CC)C=CCN6CC[C@]43[C@@H]65)C2)C1 [vinblastine] | failed to induced PLTP gene expression; also recorded: did not induce PLTP expression | – | – | –
CCC1(O)C(=O)OCc2c1cc1n(c2=O)Cc2cc3c(N)c4c(cc3nc2-1)OCO4 [9-NH2-10,11-MD-CPT(R)] | – | – | Inactive | –
N[C@@H](Cc1ccc(N(CCCl)CCCl)cc1)C(=O)O [melphalan] | – | no significant stimulation | – | –
